Earlier results in patent publication EP0324210A1 (UOP, priority 1988, dated 1989).

Conditions: aqueous solution, 25°C

acid dissociation constant pKa₃: 5.40
Compound: O=C(O)CC(O)(CC(=O)O)C(=O)O [citric acid]
